Source: ChEMBL document CHEMBL1201862, “PubChem BioAssay data set” (2004)
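Results reflect a 48-hour exposure of cells in 96-well plates to compound at five concentrations. GI50: concentration for 50% inhibition of growth.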 Calls of active or inactive are those of the source. No stated cut-off is given here; in the data, active = GI50 up to about 1.1 µM and inactive = higher.

What was measured:
Test in all cases: inhibition of tumour cell growth, NCI panel, 48 h
786-0 = tested on: 786-0
A549 = tested on: A549
ACHN = tested on: ACHN
CAKI-1 = tested on: CAKI-1
HOP-92 = tested on: HOP-92
HT-29 = tested on: HT-29
IGROV-1 = tested on: IGROV-1
K562 = tested on: K562
KM12 = tested on: KM12
M14 = tested on: M14
Malme-3M = tested on: Malme-3M
OVCAR-8 = tested on: OVCAR-8
RXF 393 = tested on: RXF 393
SF-295 = tested on: SF-295
SK-MEL-5 = tested on: SK-MEL-5
SNB-75 = tested on: SNB-75
U-251 = tested on: U-251
UACC-62 = tested on: UACC-62

Measured: GI50

C=CCN(N=O)C(=O)N(CCCCC(NC(C)=O)C(=O)NCc1ccccc1)Cc1ccccc1 (configuration not stated)
inactive: 786-0 28.6 µM | A549 38.5 µM | ACHN 42.9 µM | CAKI-1 28.6 µM | HOP-92 13.1 µM | HT-29 19.5 µM | IGROV-1 > 100 µM | K562 26.9 µM | KM12 31.6 µM | M14 22.6 µM | Malme-3M 20.2 µM | OVCAR-8 35.2 µM | RXF 393 21.7 µM | SF-295 31 µM | SK-MEL-5 15.5 µM | SNB-75 38.4 µM | U-251 42.5 µM | UACC-62 34.6 µM

Cc1ccc(S(=O)(=O)N/N=C(\CCN2CCCC2)CC(c2ccccc2)c2c(O)c3ccccc3oc2=O)cc1 (configuration not stated)
inactive: 786-0 > 100 µM | A549 > 100 µM | ACHN > 100 µM | CAKI-1 > 100 µM | HOP-92 72.3 µM | HT-29 > 100 µM | IGROV-1 > 100 µM | K562 88.9 µM | KM12 > 100 µM | M14 > 100 µM | Malme-3M > 100 µM | OVCAR-8 > 100 µM | RXF 393 > 100 µM | SF-295 > 100 µM | SK-MEL-5 > 100 µM | SNB-75 > 100 µM | U-251 > 100 µM | UACC-62 > 100 µM

COC1OC(OC)C2C(c3c(C)cc(C)cc3C)=NOC12 (configuration not stated)
inactive: 786-0 > 100 µM | A549 > 100 µM | ACHN > 100 µM | CAKI-1 > 100 µM | HOP-92 > 100 µM | HT-29 > 100 µM | IGROV-1 > 100 µM | K562 > 100 µM | KM12 > 100 µM | M14 > 100 µM | Malme-3M > 100 µM | OVCAR-8 > 100 µM | RXF 393 > 100 µM | SF-295 > 100 µM | SK-MEL-5 > 100 µM | SNB-75 > 100 µM | U-251 20.3 µM | UACC-62 > 100 µM

CCC/C(=N/NC(=O)C(N)=O)C(CC)C(=O)CCC(=O)N(Cc1ccccc1)Cc1ccccc1 (configuration not stated)
inactive: 786-0 > 100 µM | A549 > 100 µM | ACHN > 100 µM | CAKI-1 > 100 µM | HOP-92 > 100 µM | HT-29 > 100 µM | IGROV-1 > 100 µM | K562 > 100 µM | KM12 > 100 µM | M14 > 100 µM | Malme-3M > 100 µM | OVCAR-8 > 100 µM | RXF 393 > 100 µM | SF-295 > 100 µM | SK-MEL-5 > 100 µM | SNB-75 > 100 µM | U-251 > 100 µM | UACC-62 > 100 µM
